Literature values as cited in patent US20110044993A1, “METHOD FOR THE PREVENTION AND TREATMENT OF CANCER BY INHIBITION OF GPVI” (priority 2008, published 2011).

Target: T1, GPVI (Homo sapiens, UniProt Q9HCN6)
T1 sequence (Q9HCN6 21-339): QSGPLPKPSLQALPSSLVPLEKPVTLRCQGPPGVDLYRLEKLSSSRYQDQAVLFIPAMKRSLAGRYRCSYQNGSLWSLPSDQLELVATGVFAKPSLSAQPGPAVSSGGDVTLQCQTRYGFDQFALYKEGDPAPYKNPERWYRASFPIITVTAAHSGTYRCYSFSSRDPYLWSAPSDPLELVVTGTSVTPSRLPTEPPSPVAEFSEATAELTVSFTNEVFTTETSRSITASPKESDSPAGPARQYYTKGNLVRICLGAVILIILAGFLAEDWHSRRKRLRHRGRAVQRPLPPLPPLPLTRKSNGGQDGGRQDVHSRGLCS
T1 sequence (P30273 19-86 partner): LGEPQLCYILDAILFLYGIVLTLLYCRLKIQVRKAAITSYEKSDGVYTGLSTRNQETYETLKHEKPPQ
Details: cited from earlier work

For `CCCCc1nc(Cl)c(C=O)n1Cc1ccc(-c2ccccc2-c2nn[nH]n2)cc1` [EXP3179], the “Inhibition of GPVI” value is given as “inhibits GPVI”.
